Tested on: Plasmodium berghei
Assay: Antimalarial activity against Plasmodium berghei
Type: functional

Row | SMILES | log(1/C)
1 | CCCCCCCN(CCCCCCC)CC(O)c1cc2ccccc2c2cc(Br)ccc12 (stereo not given) | 3.55
2 | Cc1ccc2c(C(O)CC3CCCCN3)cc3ccc(C(F)(F)F)cc3c2c1 (stereo not given) | 3.16
3 | OC(CC1CCCCN1)c1cc2ccc(Cl)cc2c2cc(Cl)c(Cl)cc12 (stereo not given) | 3.86
4 | OC(CC1CCCCN1)c1cc2cc(C(F)(F)F)ccc2c2cc(C(F)(F)F)ccc12 (stereo not given) | 3.85
5 | CCCCN(CCCC)CC(O)c1cc2cc(Cl)ccc2c2cc(Cl)ccc12 (stereo not given) | 3.81
6 | OC(CC1CCCCN1)c1cc2c(Cl)cc(Cl)cc2c2cc(Br)ccc12 (stereo not given) | 3.81
7 | CC(C)NCC(O)c1cc2ccc(C(F)(F)F)cc2c2cc(C(F)(F)F)ccc12 (stereo not given) | 3.8
8 | CCCCN(CCCC)CC(O)c1cc2ccc(Cl)cc2c2cc(Cl)ccc12 (stereo not given) | 3.79
9 | OC(CC1CCCCN1)c1cc2c(Cl)cc(Cl)cc2c2ccc(Cl)cc12 (stereo not given) | 3.79
10 | CCCCN(CCCC)CC(O)c1cc2cc(C(F)(F)F)ccc2c2ccccc12 (stereo not given) | 3.79
11 | CCCCCCNCC(O)c1cc2ccc(C(F)(F)F)cc2c2cc(C(F)(F)F)ccc12 (stereo not given) | 3.78
12 | CCCCN(CCCC)CC(O)c1cc2cc(SC)ccc2c2cc(Cl)c(Cl)cc12 (stereo not given) | 3.74
13 | CCCCN(CCCC)CC(O)c1cc2cc(Cl)cc(Cl)c2c2cc(C(F)(F)F)ccc12 (stereo not given) | 3.74
14 | CCCCN(CCCC)CC(O)c1cc2cc(S(C)(=O)=O)ccc2c2cc(Cl)c(Cl)cc12 (stereo not given) | 3.74
15 | OC(CC1CCCCN1)c1cc2c(Cl)cc(Cl)cc2c2ccccc12 (stereo not given) | 3.73
16 | OC(CC1CCCCN1)c1cc2ccccc2c2c(C(F)(F)F)cccc12 (stereo not given) | 3.73
17 | CCCCCN(CCCCC)CC(O)c1cc2ccc(Br)cc2c2cc(Br)ccc12 (stereo not given) | 3.72
18 | CCCCN(CCCC)CC(O)c1cc2c(Cl)cc(Cl)cc2c2cc(Cl)ccc12 (stereo not given) | 3.72
19 | CCCCCCCN(CCCCCCC)CCCC(O)c1cc2ccc(C(F)(F)F)cc2c2cc(C(F)(F)F)ccc12 (stereo not given) | 3.72
20 | OC(CNC1CCCCC1)c1cc2ccc(C(F)(F)F)cc2c2cc(C(F)(F)F)ccc12 (stereo not given) | 3.72
21 | CCCCN(CCCC)CC(O)c1cc2ccc(I)cc2c2cc(C(F)(F)F)ccc12 (stereo not given) | 3.72
22 | CCCCN(CCCC)CC(O)c1c(OC)c2cc(Cl)ccc2c2ccc(Cl)cc12 (stereo not given) | 3.71
23 | OC(CC1CCCCN1)c1cc2ccc(Br)cc2c2cc(C(F)(F)F)ccc12 (stereo not given) | 3.7

Row | SMILES | log(1/C)
24 | OC(CC1CCCCN1)c1cc2cc(Cl)c(Cl)cc2c2cc(Cl)ccc12 (stereo not given) | 3.69
25 | CCCCN(CCCC)CC(O)c1cc2cc(Cl)ccc2c2cc(C(F)(F)F)ccc12 (stereo not given) | 3.69
26 | CCCCCCCN(CCCCCCC)CC(O)c1cc2cc(Cl)ccc2c2cc(C(F)(F)F)ccc12 (stereo not given) | 3.68
27 | OC(CC1CCCCN1)c1cc2cccc(C(F)(F)F)c2c2ccc(Cl)cc12 (stereo not given) | 3.66
28 | CCCCN(CCCC)CC(O)c1cc2ccc(Cl)cc2c2cc(C(F)(F)F)ccc12 (stereo not given) | 3.65
29 | CCCCN(CCCC)CC(O)c1cc2ccc(Br)cc2c2cc(Br)ccc12 (stereo not given) | 3.63
30 | OC(CC1CCCCN1)c1cc2cccc(C(F)(F)F)c2c2ccccc12 (stereo not given) | 3.62
31 | CCCCCCCN(CCCCCCC)CC(O)c1cc2ccc(Cl)cc2c2cc(C(F)(F)F)ccc12 (stereo not given) | 3.61
32 | CC(C)(C)NCC(O)c1cc2ccc(Br)cc2c2cc(Br)ccc12 (stereo not given) | 3.61
33 | OC(CC1CCCCN1)c1cc2cc(Br)c(Br)cc2c2cc(C(F)(F)F)ccc12 (stereo not given) | 3.58
34 | CCCCCCCN(CCCCCCC)CC(O)c1cc2ccccc2c2cc(C(F)(F)F)ccc12 (stereo not given) | 3.56
35 | CCCCCCCN(CCCCCCC)CC(O)c1cc2ccc(I)cc2c2cc(C(F)(F)F)ccc12 (stereo not given) | 3.55
36 | CCCCN(CCCC)CC(O)c1cc2c(Cl)c(Cl)ccc2c2cc(C(F)(F)F)ccc12 (stereo not given) | 3.55
37 | CCOC(CCCNCC(O)c1cc2ccc(C(F)(F)F)cc2c2cc(C(F)(F)F)ccc12)OCC (stereo not given) | 3.55
38 | OC(CC1CCCCN1)c1cc2cccc(C(F)(F)F)c2c2cc(C(F)(F)F)ccc12 (stereo not given) | 3.54
39 | CCCCCCCN(CCCCCCC)CC(O)c1cc2c(Cl)cc(Cl)cc2c2cc(C(F)(F)F)ccc12 (stereo not given) | 3.53
40 | CCCCCCCN(CCCCCCC)CC(O)c1cc2ccccc2c2cc(Br)ccc12.O=C(O)CCC(=O)O (stereo not given) | 3.52
41 | CCCCN(CCCC)CC(O)c1cc2cccc(Br)c2c2cc(C(F)(F)F)ccc12 (stereo not given) | 3.52
42 | OC(CC1CCCCN1)c1cc2ccccc2c2c(Cl)cc(Cl)cc12 (stereo not given) | 3.52
43 | CCCCCCN(CCCCCC)CC(O)c1cc2ccc(Br)cc2c2cc(Br)ccc12 (stereo not given) | 3.51
44 | CCCCN(CCCC)CC(O)c1cc2cc(Br)ccc2c2ccccc12 (stereo not given) | 3.5
45 | OC(CC1CCCCN1)c1cc2ccc(Cl)cc2c2cc(Cl)ccc12 (stereo not given) | 3.5
46 | OC(CC1CCCCN1)c1cc2ccccc2c2cc(Br)ccc12 (stereo not given) | 3.49

Row | SMILES | log(1/C)
47 | CN1CCCC1CC(O)c1cc2ccc(Cl)cc2c2cc(Cl)ccc12 (stereo not given) | 3.46
48 | CCCCCCCN(CCCCCCC)CC(O)c1cc2ccc(Br)cc2c2cc(Br)ccc12 (stereo not given) | 3.45
49 | CN1CCCCC1CC(O)c1cc2ccccc2c2cc(Br)ccc12 (stereo not given) | 3.44
50 | CCCCCCC[N+]([O-])(CCCCCCC)CC(O)c1cc2ccccc2c2cc(Br)ccc12 (stereo not given) | 3.43
51 | OC(CC1CCCCN1)c1cc2ccc(C(F)(F)F)cc2c2ccccc12 (stereo not given) | 3.43
52 | CCCCCCCN(CCCCCCC)CC(O)c1cc2c(Br)cccc2c2cc(C(F)(F)F)ccc12 (stereo not given) | 3.43
53 | CCCCCCCN(CCCCCCC)CC(O)c1c(Br)c2ccccc2c2cc(Br)ccc12 (stereo not given) | 3.42
54 | OC(CC1CCCCN1)c1cc2ccccc2c2cc(C(F)(F)F)ccc12 (stereo not given) | 3.37
55 | OC(CNC1CCCCC1)c1cc2ccc(Cl)cc2c2cc(Cl)ccc12 (stereo not given) | 3.36
56 | CCCCCCCN(CCCCCCC)CC(O)c1c(OC)c2cc(Br)ccc2c2ccc(Br)cc12 (stereo not given) | 3.35
57 | OC(CNC1CCCCC1)c1cc2ccccc2c2cc(OC(F)(F)F)ccc12 (stereo not given) | 3.34
58 | CCCCN(CCCC)CC(O)c1cc2c(Cl)c(Cl)ccc2c2cc(Cl)c(Cl)cc12 (stereo not given) | 3.34
59 | CCCCCCCN(CCCCCCC)CC(O)c1c(OC)c2cc(Cl)ccc2c2ccc(Cl)cc12 (stereo not given) | 3.34
60 | CCCCCCCN(CCCCCCC)CC(O)c1cc2c(Br)cccc2c2cc(Br)ccc12 (stereo not given) | 3.33
61 | CCCCCCCN(CCCCCCC)CC(O)c1c(Br)c2ccccc2c2ccccc12 (stereo not given) | 3.33
62 | CS(=O)(=O)c1ccc2cc(C(O)CC3CCCCN3)c3ccc(C(F)(F)F)cc3c2c1 (stereo not given) | 3.32
63 | OC(CC1CCCCN1)c1cc2ccc(Br)cc2c2cc(Br)ccc12 (stereo not given) | 3.31
64 | OC(CC1CCCCN1)c1cc2cc(Br)ccc2c2ccccc12 (stereo not given) | 3.25
65 | OC(CC1CCCCN1)c1cc2cc(Cl)ccc2c2ccc(C(F)(F)F)cc12 (stereo not given) | 3.25
66 | Cc1cc(C)c2cc(C(O)CC3CCCCN3)c3ccc(C(F)(F)F)cc3c2c1 (stereo not given) | 3.25
67 | CCCCCCCN(CCCCCCC)CC(O)c1cc2ccccc2c2ccc3ccccc3c12 (stereo not given) | 3.25
68 | CCCCN(CCCC)CC(O)c1cc2ccccc2c2cc(C(F)(F)F)ccc12 (stereo not given) | 3.23
69 | CCCCN(CCCC)CC(O)c1c(Br)c2ccccc2c2cc(Br)ccc12 (stereo not given) | 3.23

Row | SMILES | log(1/C)
70 | OC(CC1CCCCN1)c1cc2ccccc2c2ccc(C(F)(F)F)cc12 (stereo not given) | 3.22
71 | CCCCN1CCCCC1CC(O)c1cc2ccccc2c2cc(Br)ccc12 (stereo not given) | 3.22
72 | CCCCN(CCCC)CC(O)c1cc2ccc(C(C)(C)C)cc2c2cc(C(C)(C)C)ccc12 (stereo not given) | 3.19
73 | Cc1ccc2cc(C(O)CC3CCCCN3)c3ccc(C(F)(F)F)cc3c2c1 (stereo not given) | 3.16
74 | OC(CC1CCCCN1)c1cc2cc3c(cc2c2cc(Cl)ccc12)OCO3 (stereo not given) | 3.14
75 | CCCCCCCN(CCCCCCC)CC(O)c1cc2ccc(C(F)(F)F)cc2c2ccccc12 (stereo not given) | 3.12
76 | CCCCCCCN(CCCCCCC)CC(O)c1cc2ccc(Cl)cc2c2cc(Cl)ccc12 (stereo not given) | 3.12
77 | CCCCCCCN(CCCCCCC)CC(O)c1cc2cc(Cl)ccc2c2ccccc12 (stereo not given) | 3.09
78 | CCCCCCCN(CCCCCCC)CC(O)c1cc2ccccc2c2c(Cl)cccc12 (stereo not given) | 3.09
79 | CCCCCCCN(CCCCCCC)CC(O)c1cc2ccccc2c2cc(F)ccc12 (stereo not given) | 3.08
80 | CCCCN(CCCC)CC(O)c1cc2cc(Cl)ccc2c2ccccc12 (stereo not given) | 3.01
81 | CCCCCCCN(CCCCCCC)CCC(O)c1cc2ccccc2c2ccccc12 (stereo not given) | 3
82 | CCCCCCCN(CCCCCCC)CC(O)c1cc2ccc(Cl)cc2c2cc(OC)ccc12 (stereo not given) | 2.98
83 | CCN(Cc1cc(N)ccc1OC)CC(O)c1cc2ccccc2c2cc(Br)ccc12 (stereo not given) | 2.97
84 | CCCCCCCN(CCCCCCC)CC(O)c1cc2ccccc2c2ccc(Cl)cc12 (stereo not given) | 2.97
85 | CCCCCCCN(CCCCCCC)CC(O)c1cc2ccccc2c2ccccc12 (stereo not given) | 2.87
86 | Cc1ccc2c(C(O)CC3CCCCN3)cc3ccccc3c2c1 (stereo not given) | 2.83
87 | CCCCN(CCCC)CC(O)c1c(C)c2ccccc2c2ccccc12 (stereo not given) | 2.79
88 | CCCCN(CCCC)CC(O)c1cc2cc(Br)ccc2c2cc(S(C)(=O)=O)ccc12 (stereo not given) | 3.43
89 | OC(C[N+]12CCC(CC1)CC2)c1cc2ccc(Cl)cc2c2cc(Cl)ccc12 (stereo not given) | 2.98
90 | CCCCCCCN(CCCCCCC)CC(O)c1cc2ccc(C(F)(F)F)cc2c2cc(Cl)ccc12 (stereo not given) | 2.9

Source: ChEMBL document CHEMBL3227967, “Quantitative structure-activity relationships in 1-aryl-2-(alkylamino)ethanol antimalarials” (J Med Chem, 1979)
